In patent publication US20110300532A1, “CONTROL OF THE TOXICITY OF GOLD NANOPARTICLES” (priority 2009, published 2011):
Several values for one entry are separate records, joined by “and”; a condition that tells them apart may be missing. Identical values can stand only once. Entries after “also recorded” stand apart in the source; their conditions may differ. Like-named read-outs stand apart in the source and are kept apart here. Where a SMILES comes first, the peptide text is derived from it. The star is where a group is joined. Cbz = O=C(OCc1ccccc1)*; CH2F = FC*

Assays:
HeLa cells [1] = settings: for cell survival: cells pretreated with antioxidant 3 hours, washed, post-treated with 100 μM Au1.4MS 48 hours
Description: A) untreated cells. B) cells treated with Au1.4MS for 48 hours. C) cells pretreated with antioxidant/reducing agent for 3 hours, washed and post-treated with Au1.4MS for 48 hours. D) Au1.4MS pre-treated with antioxidant/reducing agent for 3 hours, mixture added to cells for 48 hours. E) cells pre-treated with antioxidant/reducing agent for 3 hours, then added Au1.4MS and incubated for 48 hours. F) Antioxidant/reducing agent mixed with Au1.4MS and mixture immediately added to cells and incubated for 48 hours. G) cells incubated with antioxidant/reducing agent for 48 hours.
HeLa cells were plated in 96-well microtiter plates at initial densities of 2,000 in 100 μL and were incubated for 72 hours before adding reagents. Fresh medium containing nanoparticles and/or antioxidants (reducing agents) was added to each well and cells were incubated for another 48 hours. […] Antioxidants/Reducing agents were freshly prepared by dissolving the powders in H2O to 200 mM and further diluted in fresh cell culture medium to working concentration.

HeLa cells [2] = assay: Flow cytometric determination of oxidative stress (CM-H2DCFDA); format: cell-based, human
Description: Applicant also studied the oxidative stress and mitochondrial damage induced by Au1.4MS nanoparticles. […] Applicant used 0.3% H2O2 as a positive control.
Flow cytometric determination of oxidative stress. HeLa cells were plated in 6-well plates at initial densities of 40,000 in 2 mL grown for 72 hours. Fresh medium containing nanoparticles (100 μM Au1.4MS, 1000 μM Au1.1GSH and Au15MS) was added to the cells and incubated for 0, 6, 12, 18, 24, 48 hours. All cell-material combinations were set up in triplicates. After the AuNP incubation, cells were trypsinized and rinsed with PBS. After rinsing cells were suspended in a buffer containing 5-(and-6)-chloromethyl-2′7′-dichlorodihydrofluorescein diacetate acetyl ester (CM-H2DCFDA) (Molecuar Probes/Invitrogen). Cells were incubated for 30 minutes at 37° C. as described by the manufacturer. Shortly, 50 μg CM-H2DCFDA powder was dissolved in 100 μL ethanol as stock solution and was kept in −20° C. For cell assays the stock solution was freshly diluted in PBS to a final working concentration of 2.5 μM. Cells incubated with 0.3% H2O2 for 30 minutes served as positive control. 20,000 cells were analysed using FACSCalibur or FACSCanto flow cytometers and CELL-Quest software (Becton-Dickinson).

HeLa cells [3] = assay: Inhibition of apoptosis by caspase inhibitor Z-VAD-fmk (cell survival); format: cell-based, human
Description: Apoptosis is predominantly caspase-mediated and can be blocked by Z-VAD-fmk whereas necrosis cannot.
Inhibition of apoptosis. HeLa cells were plated in 96-well microtiter plates at initial densities of 2,000 in 100 μL and were incubated for 72 hours before adding reagents. Cells were left untreated or were pre-treated with the caspase inhibitor Z-VAD-fmk for 3 hours (BACHEM N1510). A stock solution of 100 mM Z-VAD-fmk in DMSO was prepared and kept at −20° C. Working solution was freshly prepared by diluting the stock solution in fresh cell culture medium.

HeLa cells [4] = assay: Cell cycle and DNA content measurement using flow cytometry (propidium iodide); format: cell-based, human
Description: The protein p53 controls both the G2/M and the G1 cell cycle checkpoints and mediates reversible growth arrest in apoptotic fibroblasts (cf. M. Agarwal, A. Agarwal, W. Taylor, G. Stark, Proc Natl Acad Sci USA 1995, 92, 8493). To gain insight into the cell cycle progression in the context of Au1.4MS cytotoxicity, applicant measured the cellular DNA content and mitotic index of HeLa cells. […] Cells staining intermediary reside in S phase. When the HeLa cells were treated with staurosporine (curve 2) to trigger apoptosis the relative proportion of cells in G2 phase increased to 50% indicating a G2/M block of the cells. Together with the sub G1 peak and the low fluorescent peak indicating DNA fragments this pattern was typical of apoptosis. […] This is further corroborated by the fact that caspase activation, which is likewise a late event in apoptosis, but not in necrosis, was low in Au1.4MS treated cells and furthermore, that caspase inhibition by Z-VADfmk enhanced cell viability in staurosporine treated (apoptotic) cells, but not in Au1.4MS treated (secondary necrotic) cells (FIG. 4, 5).
Cell cycle and DNA content measurement using flow cytometry. HeLa cells were plated in 6-well plates and incubated for 72 hours before adding nanoparticles. […] 20,000 cells were analysed using FACSCalibur or FACSCanto flow cytometers and CELL-Quest software (Becton-Dickinson).

caspase 3/7 = assay: Fluorogenic caspase activity determination (Apo-ONE caspase-3/7 assay); format: cell-based, human
Description: To confirm that the cells underwent necrosis instead of apoptosis applicant measured the caspase 3/7 activity (FIG. 4) using the fluorogenic substrate rhodamine 110 bis-(N-CBZ-L-aspartyl-L-glutamyl-L-valyl-aspartic acid amide), Z-DEVD-R110. Caspase 3/7 enzymes cleave carboxy-terminal to the aspartate in the DEVD peptide thus converting the substrate into fluorescent rhodamine. […] Thereafter caspase 3/7 activity declined until the end of the experiment at 48 hours.
Fluorogenic caspase activity determination. […] Cells were rinsed and 30 μL of medium containing 50 μM Au1.4MS was added. Untreated cells served as negative control and cells treated with 0.2 μM staurosporine served as a positive control. Apoptosis was measured using the fluorogenic caspase substrate, Apo-ONE® homogeneous caspase-3/7 assay (Promega) as described by the manufacturer. Briefly, Apo-ONE® stock solution (100fold working concentration) was […] in Apo-One® buffer and 30 μL of this was added to each well and incubated at 23° C. for 3 hours. 50 μL of the clear supernatant was transferred to a black microtiter plate and measured using a Fluorostar plate fluorometer (BMG Labtech, Offenburg, Germany) at excitation wavelength 485 nm and emission wavelength 520 nm.

## N[C@@H](CCC(=O)N[C@@H](CS)C(=O)NCC(=O)O)C(=O)O [GSH, glutathione]
HeLa cells [1]
  inhibition of the cytotoxicity of 100 μM Au1.4MS: partially inhibit
HeLa cells [1]; NAC 3 mM, others 1 mM
  cell survival: 15%

## OO [H2O2]
HeLa cells [2]; 0.3% for 30 minutes, positive control
  oxidative stress (intracellular ROS, CM-H2DCFDA fluorescence): strong oxidative stress; also recorded: strong ROS generation

## CC(=O)N[C@@H](CS)C(=O)O [NAC, N-acetylcysteine]
HeLa cells [1]
  inhibition of the cytotoxicity of 100 μM Au1.4MS: partially inhibit
HeLa cells [1]; NAC 3 mM, others 1 mM
  cell survival: 7%

## O=S(=O)([O-])c1cccc(P(c2ccccc2)c2ccccc2)c1.[Na+] [TPPMS, triphenylphosphine monosulfonate]
HeLa cells [1]; HeLa, 48 hours, NAC 3 mM, others 1 mM
  inhibition of the cytotoxicity of 100 μM Au1.4MS: partially inhibit
HeLa cells [1]; NAC 3 mM, others 1 mM
  cell survival: 11%
HeLa cells [2]; ligand alone, not shown
  increase in intracellular fluorescence (ROS): did not cause an increase in intracellular fluorescence

## COC(=O)C[C@H](NC(=O)[C@H](C)NC(=O)[C@@H](NC(=O)OCc1ccccc1)C(C)C)C(=O)CF [Z-VAD-fmk] (Cbz-Val-Ala-Asp(OMe)-CH2F)
HeLa cells [3]; 32 μM Z-VAD-fmk, 48 hours
  survival of staurosporin-treated HeLa cells after adding Z-VAD-fmk: 84% and 83%
HeLa cells [3]; 500 μM Z-VAD-fmk, 48 hours
  survival of staurosporin-treated HeLa cells after adding Z-VAD-fmk: 90%
HeLa cells [3]; HeLa cells
  effect of Z-VAD-fmk on survival of Au1.4MS treated cells: did not increase the survival; also recorded: did not increase cell survival

## O=C1O[C@H]([C@@H](O)CO)C(O)=C1O [ascorbic acid]
HeLa cells [1]; NAC 3 mM, others 1 mM
  cell survival: 6%

## CN[C@@H]1C[C@H]2O[C@@](C)([C@@H]1OC)n1c3ccccc3c3c4c(c5c6ccccc6n2c5c31)C(=O)NC4 [staurosporine]
HeLa cells [4]; propidium iodide flow cytometry, 100 μM Au1.4MS
  DNA content / cell cycle pattern: hypodiploid peak in DNA content typical of G2/M arrest and apoptosis
HeLa cells [4]; staurosporine treated HeLa cells
  relative proportion of cells in G2 phase: 50%
HeLa cells [3]; staurosporine alone, 48 hours
  cell survival: 47%
Caspase 3/7; 0.2 μM staurosporine or 50 μM Au1.4MS
  incubation time of peak caspase 3/7 activity: 12 h
Caspase 3/7; 0.2 μM staurosporine, HeLa
  Caspase 3/7 activity increase: 6.5 fold
Caspase 3/7; 0.2 μM staurosporine, within 6 hours
  intracellular caspase 3/7 activity increase over background: 6 fold
